Laboratory results taken from patent US4545982A, “Pyranone compounds and skin-lightening cosmetic preparations or local demelanizing agents containing the same” (Yakurigaku Chuo Kenkyusho, priority 1982, dated 1985).

Key:
[1] = system: triturated solution of a shaved skin of a rat; test: Enzymatic hydrolysis of acyl compounds by rat skin homogenate (ferric chloride coloring); type: in vitro ADME; design: key: +: light wine color; ++: deep wine color; +++: dark wine color; --: no coloration; ±: indistinct coloration; details: 0.05M substrate emulsion, 37° C., 1 hr
Protocol: (§1) (1) Substrate solution: A solution containing 2% polyvinyl alcohol in M/15 phosphate buffer solution (pH 7.0) was prepared. The respective acyl compounds were added to the solution in a concentration of 0.05M and homogenized in a homogenizer to give emulsions.
(§2) (2) Enzymatic solution: 30 mg of purified bacterial lipase was dissolved in 100 ml of water. As an organic crude enzymatic solution, there was used a triturated solution of a shaved skin and pancreas of a rat weighing about 200 g.
(§3) (3) The compositions were as follows:
(§4) The composition was incubated at 37° C. for 1 hr, and the reaction was stopped by 5% metaphosphoric acid. 0.5 ml of ferric chloride reagent (0.1% aqueous solution) was added to 5 ml of the supernatant liquid after the centrifugal precipitation to observe the coloring (wine color) thereof.

[2] = system: purified bacterial lipase; test: Enzymatic hydrolysis of acyl compounds by purified bacterial lipase (ferric chloride coloring); type: in vitro ADME; design: key: +: light wine color; ++: deep wine color; +++: dark wine color; --: no coloration; ±: indistinct coloration; details: 0.05M substrate emulsion, 37° C., 1 hr
Protocol: as §1, §2, §3, §4

[3] = system: triturated solution of pancreas of a rat; test: Enzymatic hydrolysis of acyl compounds by rat pancreas homogenate (ferric chloride coloring); type: in vitro ADME; design: key: +: light wine color; ++: deep wine color; +++: dark wine color; --: no coloration; ±: indistinct coloration; details: 0.05M substrate emulsion, 37° C., 1 hr
Protocol: as §1, §2, §3, §4

[4] = system: tyrosinase; test: Inhibitory action of pretreated (hydrolyzed) 3-acyloxy-4(H)-pyran-4-one on tyrosinase activity; type: biochemical; details: 1.0% solution pretreated by hydrolysis at pH 11.0 or 2.0, 70° C., 30 minutes; L-tyrosine, pH 6.8, 37° C., absorbance at 475 mμ
Protocol: 3-Acetoxy-4(H)-pyran-4-one was dissolved in ethanol, and the solution was adjusted to pH 6.0 with succinic acid or potassium carbonate to give a 1.0% 3-acetoxy-4(H)-pyran-4-one solution.
As the pretreatment, two samples (each 10 ml) were taken from the solution. To the two samples were added 1% Na2 CO3 and 0.01% HCl to adjust the pH to 11.0 and 2.0, respectively. The adjusted samples were hydrolyzed by heating at 70° C. with stirring for 30 minutes.
To a test tube were added 1 ml of a L-tyrosine solution (0.3 mg/ml), 1 ml of McIlvaine's buffer solution (pH 6.8) and 0.9 ml of the 3-acetoxy-4(H)-pyran-4-one solution pretreated as described above. The mixture was incubated at 37° C. for 10 minutes, and 0.1 ml of a tyrosinase solution (1 mg/ml) was added thereto and stirred thoroughly. The absorbance at 475 mμ was immediately determined by a spectrophotometer with time. On the other hand, the absorbance of water was determined similarly with time as a control.

[5] = Mutagenicity
[6] = system: tyrosinase; test: Inhibitory action on tyrosinase activity (absorbance at 475 mμ with time); type: biochemical; details: 40 μg in 0.9 ml test solution, L-tyrosine, pH 6.8, 37° C., absorbance at 475 mμ with time (FIG. 1)
Protocol: To a test tube were added 0.9 ml of a test solution, containing 40 μg of pyranone described above, which solution was obtained by adding the pyranone to 30% aqueous solution of propylene glycol; 1 ml of L-tyrosine solution (0.3 mg/ml); and 1 ml McIlvaine's buffer solution (pH 6.8), and the mixture was incubated at 37° C. for 10 minutes. 0.1 ml of a tyrosinase solution (1 mg/ml) was then added to the incubated mixture and stirred thoroughly. The absorbance at 475 mμ of the mixture was immediately measured by a spectrophotometer with time. As a control, the absorbance at 475 mμ of a 30% aqueous solution of propylene glycol instead of the above test solution was measured with time.
FIG. 1 is a graph to illustrate the effect described above, and agreement of the line showing the absorbance in the case of 3-hydroxy-4(H)-pyran-4-one with the abscissa (time) of the graph clearly indicates the remarkable effect of the 3-hydroxy-4(H)-pyran-4-one.

[7] = Reducing action; type: physicochemical
[8] = system: melasma on human face; test: Action on the melanization in the human skin (melasma, ointment application); type: in vivo; details: 3 times a day, 3 months, 10 volunteers
Excerpt: Action of 3-hydroxy-4(H)-pyran-4-one and acyl derivatives thereof on the melanization in the human skin.
The test substance was mixed and dissolved in a hydrophilic ointment according to the Japanese Pharmacopoeia and applied to a melasma on one side of each human face 3 times a day. In the control, only the hydrophilic ointment was applied to a melasma on the other side of the human face in the similar way.

[9] = Germicidal action and antibiotic-like action

Row | SMILES | Ratio of formation of 3-hydroxy-4(H)--pyran-4-one, Homogenate Rat's skin [1] | Ratio of formation of 3-hydroxy-4(H)--pyran-4-one, Bacterial lipase (purified) [2] | Ratio of formation of 3-hydroxy-4(H)--pyran-4-one, Homogenate Rat's pancreas [3] | Inhibitory action on tyrosinase activity [4] | Mutagenicity [5] | Inhibitory action on tyrosinase activity [6] | Reducing action [7] | Results: Effective (number of volunteers) ([8]; 0.5% in hydrophilic ointment) | Results: Ineffective (number of volunteers) ([8]; 0.5% in hydrophilic ointment) | Results: Remarkably effective (number of volunteers) ([8]; 0.5% in hydrophilic ointment) | Results: Effective (number of volunteers) ([8]; 1% in hydrophilic ointment) | Results: Ineffective (number of volunteers) ([8]; 1% in hydrophilic ointment) | Results: Remarkably effective (number of volunteers) ([8]; 1% in hydrophilic ointment) | Germicidal action and antibiotic-like action [9] | Results: Effective (number of volunteers) ([8]; 2% in hydrophilic ointment) | Results: Ineffective (number of volunteers) ([8]; 2% in hydrophilic ointment) | Results: Remarkably effective (number of volunteers) ([8]; 2% in hydrophilic ointment)
1 | CC(=O)Oc1coccc1=O [3-acetoxy-4(H)-pyran-4-one, 3-Acetoxy-4(H)-pyran-4-one] | +++ | + | +++ | Results similar to those of the 3-hydroxy-4(H)-pyran-4-one |  |  |  |  |  |  |  |  |  |  |  |  | 
2 | O=c1ccocc1O [3-hydroxy-4(H)-pyran-4-one] |  |  |  |  | no mutagenicity | stronger inhibitory action on the tyrosinase activity than 3-hydroxy-chromone (chromonol) and kojic acid, and a far stronger inhibitory action than vitamin C | weak reducing action | 3 | 2 | 5 | 2 | 0 | 8 | deficient in germicidal action and antibiotic-like action |  |  | 
3 | CCCCCCCCCCCCCCCC(=O)Oc1coccc1=O [3-palmitoyloxy-4(H)--pyran-4-one, 3-palmitoyloxy-4(H)-pyran-4-one] | ++ | ± | ++ |  |  |  |  | 2 | 3 | 5 | 4 | 0 | 6 |  | 2 | 0 | 8
